From patent publication US20130324555A1, “Method of use of pharmaceutical formulations for the treatment of apicomplexan diseases in animals” (priority 2012, published 2013) come the findings set out here.

As usually defined, the IC50 is the concentration at which inhibition is half-maximal. What is called MIC50 is the lowest concentration that inhibits either 50% of growth or 50% of the strains tested, depending on the study. What is called MIC90 is an inhibitory concentration at the 90% level, which refers to growth in some studies and to a panel of isolates in others.

Data set [1] concerns P. falciparum D6 (CDC/Sierra Leone). Nature of the data set: Malaria SYBR Green 1-Based Fluorescence (MSF) Assay, strain D6. In kind it is cell-based. As to conditions: Plasmodium falciparum, D6, read-out: D6 IC50. On the procedure:
Compound activity against P. falciparum, the causative agent of malaria, was assessed using the Malaria SYBR Green 1-Based Fluorescence (MSF) Assay. This microtiter plate drug sensitivity assay uses the presence of malarial DNA as a measure of parasitic proliferation. The assay is a microtiter plate drug sensitivity assay that uses the presence of malarial DNA as a measure of parasitic proliferation in the presence of antimalarial drugs or experimental compounds based on modifications of previously described methods (Plouffe et al., Proc Natl Acad Sci USA. 2008, 105, 9059-9064), (Johnson et al., Antimicrob. Agents Chemother. 2005, 49, 3463-3467).
Selected compounds were examined for activity against two strains of P. falciparum: D6 (CDC/Sierra Leone), a drug-sensitive and readily killed by chloroquine, and TM90-C235, a multi-drug resistant strain resistant to chloroquine.
D6 (CDC/Sierra Leone) and TM90-C235 (WRAIR, Thailand) laboratory strains of P. falciparum were used for each drug sensitivity assessment. The parasite strains were maintained continuously in long-term cultures as previously described in Johnson et al, and P. falciparum strains in late-ring or early-trophozoite stages were cultured in predosed 384-well microtiter drug assay plates in 38 μl culture volume per well at a starting parasitemia of 0.3% and a hematocrit of 2%. Pre-dosed, sterile, 384 well black optical bottom microtiter drug plates for use in the MSF assay were produced using a Tecan EVO Freedom Liquid Handling System (Tecan US, Durham, N.C.). Dose response plates were produced at a final concentration ranging from 0.5-10000 ng/ml in quadruplicate (twelve two-fold serial dilutions of each test compound or chloroquine control in DMSO. Each run was validated by a batch control plate with chloroquine (Sigma-Aldrich Co., Catalog #C6628) at a final concentration of 2000 ng/ml. The cultures were incubated for 72 hours at 37° C., 5% CO2, 5% O2 and 90% N2. Lysis buffer (38 μl per well), consisting of 20 mM Tris HCl, 5 mM EDTA, 1.6% Triton X, 0.016% saponin, and SYBR green I dye at a 20× concentration (Invitrogen, Catalog #S-7567) was then added to the assay plates utilizing the Tecan EVO Freedom system for a final SYBR Green concentration of 10×. Plates were incubated in the dark at room temperature in the dark for 24 hours.
Compound activity was assessed by examining for the relative fluorescence units (RFU) per well using the Tecan Genios Plus (Tecan US, Inc., Durham, N.C.). GraphPad Prism (GraphPad Software Inc., San Diego, Calif.) using the nonlinear regression (sigmoidal dose-response/variable slope) equation was used to determine IC50 values.

Another data set relates to T. gondii tachyzoites. In words: In vitro inhibition of T. gondii tachyzoites (RH-YFP fluorescence / [3H]-uracil incorporation). Format: cell-based. As to conditions: for MIC50 / MIC90: Toxoplasma gondii, T. gondii tachyzoites in HFF cells; for activity against T. gondii tachyzoites, in words: only MIC50≦1 μM considered active. The method, then: Determination of the anti-apicomplexan activity of Compounds of Formula I may be determined by one skilled in the art. Parasite proliferation was monitored by using stably transfected type I RH-YFP parasites, which constitutively express Yellow Florescent Protein. Proliferation also was tested using a [^3H]-Uracil incorporation assay, as Uracil is incorporated into nucleic acids of T. gondii tachyzoites, but not mammalian cells, as they divide. Complimentary challenge assays ensured that the observed fluorescence data was due to parasite inhibition and not to quenched fluorescence. Pyrimethamine and sulfadiazine were used as positive controls, and DMSO at a concentration of 0.1% was used as the negative control. Because T. gondii is an obligate parasite, compounds that are toxic to host cells will appear to inhibit parasite growth. Therefore, all test compounds were simultaneously evaluated for efficacy and toxicity against human cells.
Test compounds were dissolved in DMSO to make a 10 mM solution, and subsequently diluted with IMDM-C to the concentrations used in bioassay. In the in vitro experiments DMSO concentration was not greater than 0.1% unless otherwise specified. RH-YFP parasites, which stably express Yellow Florescent Protein, were used. Tachyzoites were extracted from HFF cells by double passage through a 25-gauge needle, centrifuged for 15 minutes at 1500 RPM, and resuspended in IMDM-C. Confluent monolayers of HFF cells were infected with parasites in 96-well plates (Falcon 96 Optilux Flat-bottom) with 3,500 parasites in 100 uL per well. One hour after inoculation, test compounds and control media were added for a final volume of 200 uL per well. Parasite proliferation was assessed using [^3H]-Uracil incorporation or YFP Fluorescence assay.
Human Foreskin Fibroblast (HFF) cells were maintained in confluent monolayers in Iscoves's Modified Dulbecco's Medium supplemented with 10% fetal bovine serum, 1% GlutaMAX and 1% penicillin-streptomycin-fungizone (IMDM-C). T. gondii tachyzoites were cultivated in HFF monolayers. Parasites and cells were maintained at 33° C. or 37° C. and 5% CO2. The strains of parasite used in this study include RH, RH-YFP, and Prugnaud FLUC (Type 2 parasites stably transfected with luciferase), Me49 strain, and TgGoatUS4 isolate.
25 μL of 0.1 mCi/mL*^3H]-Uracil or [^3H]-Thymidine was added to each well 24 hours before reading plates. At harvesting, contents of the wells were transferred onto a 96-well UniFilter GF/C filter plates using a Filtermate 196 cell harvester (Packard). [^3H]-Uracil and [^3H]-Thymidine incorporation was measured using a Microplate Scintillation Luminescence Counter (Packard).
72 hours after initiation of the in vitro challenge assay, parasite proliferation was assessed by reading fluorescence of YFP parasites with a Synergy H4 Hybrid Reader (BioTek) and Gen5 1.10 software, using a bottom optics positions, excitation wavelength of 514 nm, and emission wavelength of 540 nm.

A short description of data set [2]: Hydrolytic stability of acylated derivatives (data not shown). In kind it is physicochemical. On the procedure: A cursory study of the effect of capping the phenol of 4 via acylation was undertaken. The acylated derivatives 7 were prepared and tested. […] The intrinsic activity of intact 7a cannot yet be ruled out, and this interesting phenomenon is currently under study.

Structures are written as SMILES. In brackets after ≈: the same amount, converted by molar mass.

For `CCN(CC)CCCC(C)Nc1ccnc2cc(Cl)ccc12` (stereo not drawn) [Chloroquine, reference compound], the IC50 in data set [1] was determined as 3.8 ng/mL (≈ 0.0119 µM).

In the case of `Cc1cccc(NC(=O)c2cc(Cl)ccc2O)c1` [Compound 3a], in the data set with T. gondii tachyzoites, the MIC50 was greater than 1 µM and the MIC90 was greater than 1 µM.

`O=C(Nc1cccc(Cl)c1)c1cc(I)cc(I)c1O` [Compound 3aa]: in the data set with T. gondii tachyzoites, the MIC50 was greater than 1 µM; the MIC90 is greater than 1 µM; the “activity against T. gondii tachyzoites, in words” value (shortened to “activity”) is recorded as “no activity”.

Take `O=C(Nc1ccc2c(c1)OCCO2)c1cc(Cl)ccc1O` [Compound 3ab]: in the data set with T. gondii tachyzoites, the MIC50 is greater than 1 µM; the MIC90 is greater than 1 µM; the “activity” value is recorded as “devoid of activity”.

Take `CCOc1cccc(NC(=O)c2cc(F)ccc2O)c1` [Compound 3ac]: in the data set on T. gondii tachyzoites, the MIC50 was greater than 1 µM; the MIC90 is greater than 1 µM; the “activity” value is on record as “no activity”.

Consider `C#Cc1cccc(NC(=O)c2cc(Cl)ccc2O)c1` [Compound 3d], for which, in the data set on T. gondii tachyzoites, the MIC50 is greater than 1 µM and the MIC90 is greater than 1 µM.

For the compound `N#Cc1cccc(NC(=O)c2cc(Cl)ccc2O)c1` [Compound 3g], in the data set with T. gondii tachyzoites, the MIC50 is greater than 1 µM and the MIC90 is greater than 1 µM.

As for `O=C(Nc1ccc([N+](=O)[O-])cc1Cl)c1ccccc1O` [Compound 3k], in the data set with T. gondii tachyzoites, the MIC50 was greater than 1 µM; the MIC90 was greater than 1 µM; the “activity” value is “eliminated activity altogether”.

For `O=C(Nc1cc(F)cc(F)c1)c1cc(Cl)ccc1O` [Compound 3o], in the data set on T. gondii tachyzoites, the MIC50 was greater than 1 µM; the MIC90 is greater than 1 µM; the “activity” value is “inactive”.

For `O=C(Nc1ccc(Cl)cc1F)c1cc(Cl)ccc1O` [Compound 3p, 5-chloro-N-(4-chloro-2-fluorophenyl)-2-hydroxybenzamide], in the data set with T. gondii tachyzoites, the “activity” value is “removed all activity”.

In the case of `COc1ccc(NC(=O)c2cc(Cl)ccc2O)c(OC)c1OC` [Compound 3q], in the data set on T. gondii tachyzoites, the MIC50 was greater than 1 µM; the MIC90 is greater than 1 µM; the “activity” value is “devoid of activity”.

Turning to `Cc1cc(C)cc(NC(=O)c2cc(Cl)ccc2O)c1` [Compound 3s], in the data set with T. gondii tachyzoites, the MIC50 was greater than 1 µM and the MIC90 was greater than 1 µM.

Take `C#Cc1cc(NC(=O)c2cc(Cl)ccc2O)ccc1F` [Compound 3t]: in the data set with T. gondii tachyzoites, the MIC50 was greater than 1 µM; the MIC90 is greater than 1 µM; the “activity” value was “inactive”.

Take `CCOc1cccc(NC(=O)c2cc(Cl)ccc2O)c1` [Compound 3u]: in the data set on T. gondii tachyzoites, the MIC50 was greater than 1 µM and the MIC90 is greater than 1 µM.

In the case of `COc1ccc(NC(=O)c2cc(Cl)ccc2O)cc1OC` [Compound 3v], in the data set on T. gondii tachyzoites, the MIC50 was greater than 1 µM; the MIC90 was greater than 1 µM; the “activity” value was “devoid of activity”.

For the compound `CC(C)Oc1cccc(NC(=O)c2cc(Cl)ccc2O)c1` [Compound 3w], in the data set on T. gondii tachyzoites, the MIC50 is greater than 1 µM and the MIC90 is greater than 1 µM.

For `COc1cc(C)cc(NC(=O)c2cc(Cl)ccc2O)c1` [Compound 3x], in the data set on T. gondii tachyzoites, the MIC50 was greater than 1 µM and the MIC90 is greater than 1 µM.

For the compound `O=C(Nc1cccc(Oc2ccccc2)c1)c1cc(Cl)ccc1O` [Compound 3y], in the data set with T. gondii tachyzoites, the MIC50 was greater than 1 µM and the MIC90 is greater than 1 µM.

In the case of `O=C(Nc1cccc(OC(F)F)c1)c1cc(Cl)ccc1O` [Compound 3z], in the data set on T. gondii tachyzoites, the MIC50 is greater than 1 µM and the MIC90 was greater than 1 µM.

In the case of `Nc1ccc(NC(=O)c2cc(Cl)ccc2O)c(Cl)c1` [Compound 5], in the data set with T. gondii tachyzoites, the MIC50 was greater than 1 µM; the MIC90 was greater than 1 µM; the “activity” value is listed as “all activity was lost”.

As for `COC(=O)[C@@H]1CCCC1C(=O)Oc1ccc(Cl)cc1C(=O)Nc1ccc([N+](=O)[O-])cc1Cl` (stereo partly drawn) [Compound 7b], in data set [2], the stability against hydrolysis entry is reported as “much more stable against hydrolysis”. Moreover, in the data set on T. gondii tachyzoites, the MIC50 was greater than 1 µM; the MIC90 was greater than 1 µM; the “activity” value was “devoid of activity”.

Consider `O=C(Nc1ccc([N+](=O)[O-])cc1Cl)c1cc(Cl)ccc1OC(=O)N1CCOCC1` [Compound 7c], for which the stability against hydrolysis result in data set [2] is recorded as “much more stable against hydrolysis”. In the data set on T. gondii tachyzoites, the MIC50 is greater than 1 µM; the MIC90 is greater than 1 µM; the “activity” value was “devoid of activity”.

`CN1CCN(C(=O)Oc2ccc(Cl)cc2C(=O)Nc2ccc([N+](=O)[O-])cc2Cl)CC1` [Compound 7d, 4-chloro-2-((2-chloro-4-nitrophenyl)carbamoyl)phenyl 4-methylpiperazine-1-carboxylate]: the stability against hydrolysis entry in data set [2] was “much more stable against hydrolysis”. Also, the “activity” value with T. gondii tachyzoites was “devoid of activity”.

Turning to `Cc1cccc(NC(=O)c2cc(F)ccc2O)c1` [Compound 10a], in the data set with T. gondii tachyzoites, the MIC50 is greater than 1 µM; the MIC90 is greater than 1 µM; the “activity” value was “inactive”.

For `COc1cccc(NC(=O)c2cc(F)ccc2O)c1` [Compound 10b], in the data set on T. gondii tachyzoites, the MIC50 is greater than 1 µM; the MIC90 is greater than 1 µM; the “activity” value is “inactive”.
